Data reported in patent US9902702B2, “Spirocycloheptanes as inhibitors of rock” (BRISTOL-MYERS SQUIBB COMPANY, priority 2014, dated 2018).
pIC50: −log10 of the molar value.

Biological target: ROCK2 (Homo sapiens, UniProt O75116)
Test: ROCK assay: phosphorylation of FITC peptide substrate, LABCHIP 3000 mobility shift
Type: biochemical
Conditions: 5 μM ATP, 1.5 μM peptide substrate; read-out: ROCK2 Activity (ROCK IC50 range)
Outline: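 Rho kinase variant phosphorylates 1.5 μM FITC-AHA-AKRRRLSSLRA-OH with 5 μM ATP in 20 mM HEPES pH 7.5, 20 mM MgCl2, 0.015% Brij-35, 4 mM DTT, DMSO <2%. EDTA stops the reaction, and phospho and non-phospho peptides are resolved by LabChip 3000 mobility shift. IC50 from dose-response curve fit.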

ROCK2, sequence (O75116 whole entry, species assumed): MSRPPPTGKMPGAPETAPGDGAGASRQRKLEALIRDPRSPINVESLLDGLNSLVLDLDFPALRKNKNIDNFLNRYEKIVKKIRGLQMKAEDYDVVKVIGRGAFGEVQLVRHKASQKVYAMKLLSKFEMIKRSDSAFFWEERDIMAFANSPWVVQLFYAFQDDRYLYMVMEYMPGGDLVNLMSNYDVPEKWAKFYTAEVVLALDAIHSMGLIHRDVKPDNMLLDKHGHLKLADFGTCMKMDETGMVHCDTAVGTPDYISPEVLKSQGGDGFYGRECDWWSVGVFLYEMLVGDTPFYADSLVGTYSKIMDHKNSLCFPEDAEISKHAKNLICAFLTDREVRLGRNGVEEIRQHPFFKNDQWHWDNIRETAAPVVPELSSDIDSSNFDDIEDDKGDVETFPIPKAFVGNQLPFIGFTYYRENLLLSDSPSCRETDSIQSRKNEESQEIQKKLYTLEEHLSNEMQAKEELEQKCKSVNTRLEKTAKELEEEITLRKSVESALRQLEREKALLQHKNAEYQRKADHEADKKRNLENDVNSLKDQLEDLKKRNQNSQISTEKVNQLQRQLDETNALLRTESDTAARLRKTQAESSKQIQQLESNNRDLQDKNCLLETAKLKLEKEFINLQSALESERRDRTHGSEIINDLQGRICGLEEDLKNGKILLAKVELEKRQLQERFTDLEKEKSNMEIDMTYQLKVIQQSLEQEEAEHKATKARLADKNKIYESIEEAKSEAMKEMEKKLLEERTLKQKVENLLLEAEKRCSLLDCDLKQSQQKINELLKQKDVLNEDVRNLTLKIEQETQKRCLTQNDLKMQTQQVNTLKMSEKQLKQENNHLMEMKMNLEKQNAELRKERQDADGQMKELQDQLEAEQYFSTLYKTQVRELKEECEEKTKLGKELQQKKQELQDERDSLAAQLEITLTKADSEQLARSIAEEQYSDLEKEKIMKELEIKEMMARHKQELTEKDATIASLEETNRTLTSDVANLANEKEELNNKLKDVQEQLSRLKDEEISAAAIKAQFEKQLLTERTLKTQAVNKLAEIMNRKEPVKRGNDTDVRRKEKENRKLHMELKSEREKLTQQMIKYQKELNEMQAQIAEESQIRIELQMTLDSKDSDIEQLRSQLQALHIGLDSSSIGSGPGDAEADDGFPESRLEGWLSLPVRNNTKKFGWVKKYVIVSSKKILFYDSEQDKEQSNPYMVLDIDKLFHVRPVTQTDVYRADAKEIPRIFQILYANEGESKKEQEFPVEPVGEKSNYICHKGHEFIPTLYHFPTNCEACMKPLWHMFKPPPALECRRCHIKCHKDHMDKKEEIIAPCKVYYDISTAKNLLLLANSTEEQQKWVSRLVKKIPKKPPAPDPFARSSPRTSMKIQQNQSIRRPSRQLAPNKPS

| Compound | pIC50 |
| --- | --- |
| [H][C@]1(c2n[nH]c(=O)c3ccccc32)C[C@]2(C[C@@H](NC(=O)c3ccc(-n4cnc(C)c4)c(OC)c3)C2)C1 (stereo partly drawn) [Example 349, 3-methoxy-4-(4-methyl-1H-imidazol-1-yl)-N-((aR)-6-(4-oxo-3,4-dihydrophthalazin-1-yl)spiro[3.3]heptan-2-yl)benzamide] | 7.82 to 8.29 |
| [H][C@]1(c2n[nH]c(=O)c3ccccc32)C[C@]2(C[C@@H](NC(=O)c3ccc(-c4cnc(C)s4)c(OC)c3)C2)C1 (stereo partly drawn) [Example 350, 3-methoxy-4-(2-methylthiazol-5-yl)-N-((aR)-6-(4-oxo-3,4-dihydrophthalazin-1-yl)spiro[3.3]heptan-2-yl)benzamide] | 8.30 to 8.70 |
| COc1ccc(C(=O)NC2CC3(C2)CC(c2n[nH]c(=O)c4ccccc24)C3)nc1 [Example 351, 5-methoxy-N-((aR)-6-(4-oxo-3,4-dihydrophthalazin-1-yl)spiro[3.3]heptan-2-yl)picolinamide] | 5.68 to 7.00 |
| [H][C@]1(c2n[nH]c(=O)c3ccccc32)C[C@]2(C[C@@H](NC(=O)c3cccc(-n4ccnc4)c3)C2)C1 (stereo partly drawn) [Example 352, 3-(1H-imidazol-1-yl)-N-((aR)-6-(4-oxo-3,4-dihydrophthalazin-1-yl)spiro[3.3]heptan-2-yl)benzamide] | 7.00 to 7.82 |
| [H][C@]1(c2n[nH]c(=O)c3ccccc32)C[C@]2(C[C@@H](NC(=O)c3ccc(OC(C)C)c(C#N)c3)C2)C1 (stereo partly drawn) [Example 353, 3-cyano-4-isopropoxy-N-((aR)-6-(4-oxo-3,4-dihydrophthalazin-1-yl)spiro[3.3]heptan-2-yl)benzamide] | 7.82 to 8.29 |
| [H][C@]1(c2n[nH]c(=O)c3ccccc32)C[C@]2(C[C@@H](NC(=O)c3cccc(OC(F)F)c3)C2)C1 (stereo partly drawn) [Example 354, 3-(difluoromethoxy)-N-((aR)-6-(4-oxo-3,4-dihydrophthalazin-1-yl)spiro[3.3]heptan-2-yl)benzamide] | 7.82 to 8.29 |
| [H][C@]1(c2n[nH]c(=O)c3ccccc32)C[C@]2(C[C@@H](NC(=O)C3=C(OCC)C(=O)N(CC(F)(F)F)C3)C2)C1 (stereo partly drawn) [Example 355, 4-ethoxy-5-oxo-N-((aR)-6-(4-oxo-3,4-dihydrophthalazin-1-yl)spiro[3.3]heptan-2-yl)-1-(2,2,2-trifluoroethyl)-2,5-dihydro-1H-pyrrole-3-carboxamide] | 7.00 to 7.82 |
| [H][C@]1(c2n[nH]c(=O)c3ccccc32)C[C@]2(C[C@@H](NC(=O)c3ccc(N(C)C)nc3)C2)C1 (stereo partly drawn) [Example 356, 6-(dimethylamino)-N-((aR)-6-(4-oxo-3,4-dihydrophthalazin-1-yl)spiro[3.3]heptan-2-yl)nicotinamide] | 7.00 to 7.82 |
| [H][C@]1(c2n[nH]c(=O)c3ccccc32)C[C@]2(C[C@@H](NC(=O)c3ccc(-c4cc[nH]n4)cc3)C2)C1 (stereo partly drawn) [Example 357, N-((aR)-6-(4-oxo-3,4-dihydrophthalazin-1-yl)spiro[3.3]heptan-2-yl)-4-(1H-pyrazol-3-yl)benzamide] | 7.00 to 7.82 |
| [H][C@]1(c2n[nH]c(=O)c3ccccc32)C[C@]2(C[C@@H](NC(=O)c3ccc(-c4cnco4)cc3)C2)C1 (stereo partly drawn) [Example 358, 4-(oxazol-5-yl)-N-((aR)-6-(4-oxo-3,4-dihydrophthalazin-1-yl)spiro[3.3]heptan-2-yl)benzamide] | 7.00 to 7.82 |
| [H][C@]1(c2n[nH]c(=O)c3ccccc32)C[C@]2(C[C@@H](NC(=O)c3ccc(-n4ccnc4)cc3)C2)C1 (stereo partly drawn) [Example 359, 4-(1H-imidazol-1-yl)-N-((aR)-6-(4-oxo-3,4-dihydrophthalazin-1-yl)spiro[3.3]heptan-2-yl)benzamide] | 5.68 to 7.00 |
| [H][C@]1(c2n[nH]c(=O)c3ccccc32)C[C@]2(C[C@@H](NC(=O)c3ccc(-c4noc(C)n4)cc3)C2)C1 (stereo partly drawn) [Example 360, 4-(5-methyl-1,2,4-oxadiazol-3-yl)-N-((aR)-6-(4-oxo-3,4-dihydrophthalazin-1-yl)spiro[3.3]heptan-2-yl)benzamide] | 7.00 to 7.82 |
| [H][C@]1(c2n[nH]c(=O)c3ccccc32)C[C@]2(C[C@@H](NC(=O)c3cccc(-c4cc[nH]n4)c3)C2)C1 (stereo partly drawn) [Example 361, N-((aR)-6-(4-oxo-3,4-dihydrophthalazin-1-yl)spiro[3.3]heptan-2-yl)-3-(1H-pyrazol-3-yl)benzamide] | 7.82 to 8.29 |
| [H][C@]1(c2n[nH]c(=O)c3ccccc32)C[C@]2(C[C@@H](NC(=O)c3cn4cccc(C)c4n3)C2)C1 (stereo partly drawn) [Example 362, 8-methyl-N-((aR)-6-(4-oxo-3,4-dihydrophthalazin-1-yl)spiro[3.3]heptan-2-yl)imidazo[1,2-a]pyridine-2-carboxamide] | 7.00 to 7.82 |
| [H][C@]1(c2n[nH]c(=O)c3ccccc32)C[C@]2(C[C@@H](NC(=O)c3cn4cc(Br)ccc4n3)C2)C1 (stereo partly drawn) [Example 363, 6-bromo-N-((aR)-6-(4-oxo-3,4-dihydrophthalazin-1-yl)spiro[3.3]heptan-2-yl)imidazo[1,2-a]pyridine-2-carboxamide] | 7.00 to 7.82 |

Results, then the compound that gave them:

| pIC50 | Compound |
| --- | --- |
| 7.82 to 8.29 | [H][C@]1(c2n[nH]c(=O)c3ccccc32)C[C@]2(C[C@@H](NC(=O)c3cn(C)c4ccccc34)C2)C1 (stereo partly drawn) [Example 364, 1-methyl-N-((aR)-6-(4-oxo-3,4-dihydrophthalazin-1-yl)spiro[3.3]heptan-2-yl)-1H-indole-3-carboxamide] |
| 7.00 to 7.82 | [H][C@]1(c2n[nH]c(=O)c3ccccc32)C[C@]2(C[C@@H](NC(=O)c3nc(-c4ccncc4)sc3C)C2)C1 (stereo partly drawn) [Example 365, 5-methyl-N-((aR)-6-(4-oxo-3,4-dihydrophthalazin-1-yl)spiro[3.3]heptan-2-yl)-2-(pyridin-4-yl)thiazole-4-carboxamide] |
| 7.82 to 8.29 | [H][C@]1(c2n[nH]c(=O)c3ccccc32)C[C@]2(C[C@@H](NC(=O)c3ccc4cnn(C)c4c3)C2)C1 (stereo partly drawn) [Example 366, 1-methyl-N-((aR)-6-(4-oxo-3,4-dihydrophthalazin-1-yl)spiro[3.3]heptan-2-yl)-1H-indazole-6-carboxamide] |
| 7.82 to 8.29 | [H][C@]1(c2n[nH]c(=O)c3ccccc32)C[C@]2(C[C@@H](NC(=O)c3ccc4ccn(C)c4c3)C2)C1 (stereo partly drawn) [Example 367, 1-methyl-N-((aR)-6-(4-oxo-3,4-dihydrophthalazin-1-yl)spiro[3.3]heptan-2-yl)-1H-indole-6-carboxamide] |
| 7.82 to 8.29 | [H][C@]1(c2n[nH]c(=O)c3ccccc32)C[C@]2(C[C@@H](NC(=O)c3ccc4c(ccn4C)c3)C2)C1 (stereo partly drawn) [Example 368, 1-methyl-N-((aR)-6-(4-oxo-3,4-dihydrophthalazin-1-yl)spiro[3.3]heptan-2-yl)-1H-indole-5-carboxamide] |
| 7.00 to 7.82 | [H][C@]1(c2n[nH]c(=O)c3ccccc32)C[C@]2(C[C@@H](NC(=O)c3ccc(N4CCCC4)cn3)C2)C1 (stereo partly drawn) [Example 369, N-((aR)-6-(4-oxo-3,4-dihydrophthalazin-1-yl)spiro[3.3]heptan-2-yl)-5-(pyrrolidin-1-yl)picolinamide] |
| 7.82 to 8.29 | [H][C@]1(c2n[nH]c(=O)c3ccccc32)C[C@]2(C[C@@H](NC(=O)c3ccc(C(F)(F)F)cn3)C2)C1 (stereo partly drawn) [Example 370, N-((aR)-6-(4-oxo-3,4-dihydrophthalazin-1-yl)spiro[3.3]heptan-2-yl)-5-(trifluoromethyl) picolinamide] |
| 7.00 to 7.82 | [H][C@]1(c2n[nH]c(=O)c3ccccc32)C[C@]2(C[C@@H](NC(=O)c3ccc(C#N)c(C)n3)C2)C1 (stereo partly drawn) [Example 371, 5-cyano-6-methyl-N-((aR)-6-(4-oxo-3,4-dihydrophthalazin-1-yl)spiro[3.3]heptan-2-yl)picolinamide] |
